Data reported in PubChem BioAssay AID2060611 (Molecular Pharmacology Branch, DTP, NCI, 2025).

Tested on: 628569-122-R-J1-PDC complex spheroid viability
Assay: Anticancer human tumor 628569-122-R-J1-PDC patient-derived head and neck squamous carcinoma cell line growth inhibition [CLK]
Conditions: for IC50: curve of first compound; for viability, T/C: stronger effect = lower value
Outline: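 Patient-derived tumor cells grown as complex spheroids with HUVEC endothelial cells and mesenchymal stem cells, treated with drug combinations. Concentrations descend in half-log steps from near clinical Cmax, or from 10 microM if Cmax unknown.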
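Further: spheroids exposed to agents for seven days before readout.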
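Wherever viability, T/C is given: 100% = DMSO vehicle control viability.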

Cn1ncnc1[C@H]1c2n[nH]c(=O)c3cc(F)cc(c23)N[C@@H]1c1ccc(F)cc1 + CNC(=O)c1ccc(Nc2nc(OC3CCCC3)c3c(-c4ccc5nc(C)oc5c4)c[nH]c3n2)c(OC)c1
IC50 (second compound 0.0316 µM): > 100 nM
IC50 (second compound 0.1 µM): 37.6 nM
IC50 (second compound 0.316 µM): 1.53 nM
IC50 (second compound 1 µM): < 0.316 nM
IC50 (second compound 3.16 µM): < 0.316 nM
IC50 (second compound 10 µM): < 0.316 nM
viability, T/C (second compound 0.0316 µM, first compound 0.000316 µM): 86.7%
viability, T/C (second compound 0.0316 µM, first compound 0.001 µM): 90.1%
viability, T/C (second compound 0.0316 µM, first compound 0.00316 µM): 82.7%
viability, T/C (second compound 0.0316 µM, first compound 0.01 µM): 71.3%
viability, T/C (second compound 0.0316 µM, first compound 0.0316 µM): 78%
viability, T/C (second compound 0.0316 µM, first compound 0.1 µM): 64.9%
viability, T/C (second compound 0.1 µM, first compound 0.000316 µM): 61.4%
viability, T/C (second compound 0.1 µM, first compound 0.001 µM): 53.4%
viability, T/C (second compound 0.1 µM, first compound 0.00316 µM): 60.1%
viability, T/C (second compound 0.1 µM, first compound 0.01 µM): 53.7%
viability, T/C (second compound 0.1 µM, first compound 0.0316 µM): 51%
viability, T/C (second compound 0.1 µM, first compound 0.1 µM): 45.9%
viability, T/C (second compound 0.316 µM, first compound 0.000316 µM): 47.7%
viability, T/C (second compound 0.316 µM, first compound 0.001 µM): 48.4%
viability, T/C (second compound 0.316 µM, first compound 0.00316 µM): 51.9%
viability, T/C (second compound 0.316 µM, first compound 0.01 µM): 54.4%
viability, T/C (second compound 0.316 µM, first compound 0.0316 µM): 54.5%
viability, T/C (second compound 0.316 µM, first compound 0.1 µM): 39.6%
viability, T/C (second compound 1 µM, first compound 0.000316 µM): 43.9%
viability, T/C (second compound 1 µM, first compound 0.001 µM): 39.5%
viability, T/C (second compound 1 µM, first compound 0.00316 µM): 48.1%
viability, T/C (second compound 1 µM, first compound 0.01 µM): 39%
viability, T/C (second compound 1 µM, first compound 0.0316 µM): 40.1%
viability, T/C (second compound 1 µM, first compound 0.1 µM): 40.2%
viability, T/C (second compound 3.16 µM, first compound 0.000316 µM): 37.5%
viability, T/C (second compound 3.16 µM, first compound 0.001 µM): 45.5%
viability, T/C (second compound 3.16 µM, first compound 0.00316 µM): 48.5%
viability, T/C (second compound 3.16 µM, first compound 0.01 µM): 41.5%
viability, T/C (second compound 3.16 µM, first compound 0.0316 µM): 37.7%
viability, T/C (second compound 3.16 µM, first compound 0.1 µM): 34.3%
viability, T/C (second compound 10 µM, first compound 0.000316 µM): 47.4%
viability, T/C (second compound 10 µM, first compound 0.001 µM): 39.6%
viability, T/C (second compound 10 µM, first compound 0.00316 µM): 41.4%
viability, T/C (second compound 10 µM, first compound 0.01 µM): 36.7%
viability, T/C (second compound 10 µM, first compound 0.0316 µM): 38%
viability, T/C (second compound 10 µM, first compound 0.1 µM): 31.3%
